The series is described as follows: ABTS radical scavenging activity assessed as trolox equivalent antioxidant capacity after 10 mins. It counts as physicochemical.
Turning to `COc1cc(O)cc(/C=C/c2ccc(O)cc2)c1`, the outcome was Active. As to `Oc1ccc(/C=C/c2cc(O)cc(O)c2)cc1` [RESVERATROL], the Activity stood at 2.74. Then `COc1ccc(/C=C/c2cc(O)cc(O)c2)cc1` [RESVERATROL 4'-METHYL ETHER], with “Active”.

Values taken from ChEMBL document CHEMBL1147224, “Resveratrol and two monomethylated stilbenes from Israeli Rumex bucephalophorus and their antioxidant potential” (J Nat Prod, 2003).
